Reference: BigSolDB 2.1

CCCCCCC1(CCCCCC)c2cc(Br)ccc2-c2ccc(Br)cc21
solubility (mole fraction)
Settings	283.15 K	293.15 K	303.15 K	313.15 K	323.15 K
in 1,4-dioxane	–	0.0466	0.0801	0.113	0.17
in THF	0.0977	0.112	0.127	0.146	0.158
in acetonitrile	0.000305	0.000473	0.000684	0.000954	0.0012
in chloroform	0.0364	0.041	0.0483	0.0543	0.0613
in dichloromethane	0.0468	0.0633	0.0807	0.0987	0.118
in ethanol	0.00158	0.00182	0.00209	0.00233	0.00264
in ethyl acetate	0.0433	0.0613	0.0873	0.114	0.144
in isopropanol	0.000772	0.00117	0.00191	0.00293	0.00392
in methanol	0.000142	0.000189	0.000293	0.000427	0.000582
in n-butanol	0.00329	0.00586	0.00935	0.0127	0.0165
in n-hexane	0.0382	0.0578	0.0907	0.123	0.163
in toluene	0.0918	0.121	0.152	0.188	0.242
